Assay results published in ChEMBL document CHEMBL1201861, “Genomics of Drug Sensitity in Cancer screening data, Wellcome Trust Sanger Institute”.

Tests used:
Experiment in all cases: cells
Conditions in all cases: Homo sapiens
[1] = tested on: OE19; assay type: functional, cell-based;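 note: growth inhibition of OE19 cells, measured through a cell viability read-out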
Description: SANGER: Inhibition of human OE19 cell growth in a cell viability assay.

[2] = tested on: G-402; assay type: functional, cell-based
Description: SANGER: Inhibition of human G-402 cell growth in a cell viability assay.

[3] = tested on: PC-14; assay type: functional, cell-based;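 note: cell viability assay measuring inhibition of PC-14 cell growth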
Description: SANGER: Inhibition of human PC-14 cell growth in a cell viability assay.

[4] = tested on: BEN; assay type: functional, cell-based;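 note: growth inhibition of the BEN cell line, read out with a cell viability assay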
Description: SANGER: Inhibition of human BEN cell growth in a cell viability assay.

[5] = tested on: NCI-H358; assay type: functional, cell-based;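 note: growth inhibition of NCI-H358 human cells, read out with a cell viability assay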
Description: SANGER: Inhibition of human NCI-H358 cell growth in a cell viability assay.

[6] = tested on: RO82-W-1; assay type: functional, cell-based;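 note: growth inhibition of human RO82-W-1 cells, measured with a cell viability assay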
Description: SANGER: Inhibition of human RO82-W-1 cell growth in a cell viability assay.

[7] = tested on: LN-405; assay type: functional, cell-based
Description: SANGER: Inhibition of human LN-405 cell growth in a cell viability assay.

[8] = tested on: PA-1; assay type: functional, cell-based;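 note: IC50 for suppression of PA-1 cell proliferation, determined with a cell viability read-out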
Description: SANGER: Inhibition of human PA-1 cell growth in a cell viability assay.

[9] = tested on: HLE; assay type: functional, cell-based;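 note: growth inhibition of human HLE cells, read out by a cell viability assay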
Description: SANGER: Inhibition of human HLE cell growth in a cell viability assay.

[10] = tested on: U2OS; assay type: functional, cell-based, U-2-OS;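 note: growth inhibition of human U-2-OS cells, determined with a cell viability assay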
Description: SANGER: Inhibition of human U-2-OS cell growth in a cell viability assay.

[11] = tested on: UMUC3; assay type: functional, cell-based;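 note: growth inhibition of human UM-UC-3 cells, read out with a cell viability assay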
Description: SANGER: Inhibition of human UM-UC-3 cell growth in a cell viability assay.

[12] = tested on: TCC-SUP; assay type: functional, cell-based;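 note: growth inhibition of TCC-SUP cells, read out with a cell viability assay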
Description: SANGER: Inhibition of human TCCSUP cell growth in a cell viability assay.

[13] = tested on: HuP-T4; assay type: functional, cell-based;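 note: cell viability assay measuring how much HuP-T4 cell growth is inhibited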
Description: SANGER: Inhibition of human HuP-T4 cell growth in a cell viability assay.

[14] = tested on: SW1463; assay type: functional, cell-based;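 note: growth inhibition of SW1463 cells, determined with a cell viability assay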
Description: SANGER: Inhibition of human SW1463 cell growth in a cell viability assay.

[15] = tested on: KYSE-70 cell line; assay type: functional, cell-based;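 note: cell viability assay read-out, with IC50 expressing suppression of KYSE-70 cell growth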
Description: SANGER: Inhibition of human KYSE-70 cell growth in a cell viability assay.

[16] = tested on: BXPC-3; assay type: functional, cell-based;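 note: growth inhibition of human BxPC-3 cells, read out by a cell viability assay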
Description: SANGER: Inhibition of human BxPC-3 cell growth in a cell viability assay.

[17] = tested on: NCI-H1651; assay type: functional, cell-based;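 note: Read-out is a cell viability assay, with IC50 expressing inhibition of NCI-H1651 cell growth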
Description: SANGER: Inhibition of human NCI-H1651 cell growth in a cell viability assay.

[18] = tested on: KYSE-140; assay type: functional, cell-based;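 note: cell viability assay measuring growth inhibition in human KYSE-140 cells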
Description: SANGER: Inhibition of human KYSE-140 cell growth in a cell viability assay.

[19] = tested on: NCI-H1437; assay type: functional, cell-based;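 note: growth inhibition of human NCI-H1437 cells, read out by a cell viability assay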
Description: SANGER: Inhibition of human NCI-H1437 cell growth in a cell viability assay.

[20] = tested on: MOLT-13; assay type: functional, cell-based;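 note: IC50 for suppression of MOLT-13 cell growth, read out with a cell viability assay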
Description: SANGER: Inhibition of human MOLT-13 cell growth in a cell viability assay.

[21] = tested on: KYSE-270; assay type: functional, cell-based;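 note: cell growth inhibition measured with a viability assay in the human KYSE-270 line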
Description: SANGER: Inhibition of human KYSE-270 cell growth in a cell viability assay.

[22] = tested on: SW948; assay type: functional, cell-based;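 note: growth inhibition of SW948 cells, read out with a cell viability assay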
Description: SANGER: Inhibition of human SW948 cell growth in a cell viability assay.

[23] = tested on: M059J; assay type: functional, cell-based;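 note: growth inhibition of M059J cells, read out with a cell viability assay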
Description: SANGER: Inhibition of human M059J cell growth in a cell viability assay.

[24] = tested on: NCI-H1693; assay type: functional, cell-based;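 note: growth inhibition of the human cell line, read out with a cell viability assay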
Description: SANGER: Inhibition of human NCI-H1693 cell growth in a cell viability assay.

[25] = tested on: CAL-39; assay type: functional, cell-based;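 note: cell viability assay measuring growth inhibition of CAL-39 cells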
Description: SANGER: Inhibition of human CAL-39 cell growth in a cell viability assay.

[26] = tested on: HuO-3N1; assay type: functional, cell-based;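 note: cell viability readout used to measure how strongly compounds suppress proliferation of human HuO-3N1 cells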
Description: SANGER: Inhibition of human HuO-3N1 cell growth in a cell viability assay.

[27] = tested on: NCI-H2347; assay type: functional, cell-based;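 note: growth inhibition of the cell line, read out with a cell viability assay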
Description: SANGER: Inhibition of human NCI-H2347 cell growth in a cell viability assay.

[28] = tested on: J82; assay type: functional, cell-based;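 note: growth inhibition of J82 cells, read out with a cell viability assay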
Description: SANGER: Inhibition of human J82 cell growth in a cell viability assay.

[29] = tested on: LCLC-97TM1; assay type: functional, cell-based;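 note: cell viability assay measuring growth inhibition of human LCLC-97TM1 cells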
Description: SANGER: Inhibition of human LCLC-97TM1 cell growth in a cell viability assay.

[30] = tested on: MeWo; assay type: functional, cell-based;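 note: growth inhibition of MeWo cells, determined by a cell viability readout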
Description: SANGER: Inhibition of human Mewo cell growth in a cell viability assay.

[31] = tested on: ABC-1; assay type: functional, cell-based;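 note: growth inhibition of human ABC-1 cells, read out by a cell viability assay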
Description: SANGER: Inhibition of human ABC-1 cell growth in a cell viability assay.

[32] = tested on: COR-L23; assay type: functional, cell-based;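 note: cell viability assay measuring how strongly compounds suppress growth of COR-L23 cells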
Description: SANGER: Inhibition of human COR-L23 cell growth in a cell viability assay.

[33] = tested on: HCT-116; assay type: functional, cell-based
Description: SANGER: Inhibition of human HCT-116 cell growth in a cell viability assay.

[34] = tested on: Hs-578T; assay type: functional, cell-based
Description: SANGER: Inhibition of human Hs-578-T cell growth in a cell viability assay.

[35] = tested on: SK-MEL-28; assay type: functional, cell-based;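 note: growth inhibition of human SK-MEL-28 cells, read out with a cell viability assay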
Description: SANGER: Inhibition of human SK-MEL-28 cell growth in a cell viability assay.

[36] = tested on: IGR-1; assay type: functional, cell-based;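 note: growth inhibition of human IGR-1 cells, read out with a cell viability assay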
Description: SANGER: Inhibition of human IGR-1 cell growth in a cell viability assay.

[37] = tested on: SK-N-AS; assay type: functional, cell-based;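 note: growth inhibition of human SK-N-AS cells, measured with a cell viability assay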
Description: SANGER: Inhibition of human SK-N-AS cell growth in a cell viability assay.

[38] = tested on: NCI-H2452; assay type: functional, cell-based;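 note: growth inhibition of NCI-H2452 cells, read out with a cell viability assay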
Description: SANGER: Inhibition of human NCI-H2452 cell growth in a cell viability assay.

[39] = tested on: T84; assay type: functional, cell-based;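 note: growth inhibition measured with a cell viability readout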
Description: SANGER: Inhibition of human T84 cell growth in a cell viability assay.

[40] = tested on: DMS-273; assay type: functional, cell-based
Description: SANGER: Inhibition of human DMS-273 cell growth in a cell viability assay.

[41] = tested on: SK-MEL-24; assay type: functional, cell-based;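 note: growth inhibition read out by a cell viability assay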
Description: SANGER: Inhibition of human SK-MEL-24 cell growth in a cell viability assay.

[42] = tested on: EW-22; assay type: functional, cell-based;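 note: growth inhibition of the EW-22 cell line, measured with a cell viability readout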
Description: SANGER: Inhibition of human EW-22 cell growth in a cell viability assay.

[43] = tested on: DOK; assay type: functional, cell-based;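 note: cell viability assay read-out, values reflect inhibition of cell growth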
Description: SANGER: Inhibition of human DOK cell growth in a cell viability assay.

[44] = tested on: EGI-1; assay type: functional, cell-based;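 note: cell viability readout used to gauge growth inhibition of EGI-1 cells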
Description: SANGER: Inhibition of human EGI-1 cell growth in a cell viability assay.

[45] = tested on: CaR-1; assay type: functional, cell-based;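 note: growth inhibition of human CaR-1 cancer cells, read out with a cell viability assay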
Description: SANGER: Inhibition of human CaR-1 cell growth in a cell viability assay.

[46] = tested on: D-247MG; assay type: functional, cell-based
Description: SANGER: Inhibition of human D-247MG cell growth in a cell viability assay.

[47] = tested on: CAKI-1; assay type: functional, cell-based;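 note: growth inhibition of CAKI-1 cells, measured by a cell viability assay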
Description: SANGER: Inhibition of human CAKI-1 cell growth in a cell viability assay.

[48] = tested on: NCI-H460; assay type: functional, cell-based;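 note: cell viability assay scoring growth inhibition of human NCI-H460 cells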
Description: SANGER: Inhibition of human NCI-H460 cell growth in a cell viability assay.

[49] = tested on: SW1088; assay type: functional, cell-based;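 note: growth inhibition of human SW1088 cells, read out by a cell viability assay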
Description: SANGER: Inhibition of human SW1088 cell growth in a cell viability assay.

[50] = tested on: MHH-ES-1; assay type: functional, cell-based;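 note: cell growth inhibition measured by a cell viability assay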
Description: SANGER: Inhibition of human MHH-ES-1 cell growth in a cell viability assay.

[51] = tested on: SW1710; assay type: functional, cell-based;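 note: growth inhibition of SW1710 cells, determined with a cell viability assay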
Description: SANGER: Inhibition of human SW1710 cell growth in a cell viability assay.

[52] = tested on: NCI-H1623; assay type: functional, cell-based;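 note: cell viability assay used as the read-out for growth inhibition of NCI-H1623 cells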
Description: SANGER: Inhibition of human NCI-H1623 cell growth in a cell viability assay.

[53] = tested on: COLO-741; assay type: functional, cell-based
Description: SANGER: Inhibition of human COLO-741 cell growth in a cell viability assay.

SMILES: C[C@]12O[C@H](C[C@]1(O)CO)n1c3ccccc3c3c4c(c5c6ccccc6n2c5c31)CNC4=O [LESTAURTINIB]
- IC50 [1]: > 2000 nM
- IC50 [2]: 1100 nM
- IC50 [3]: 449 nM
- IC50 [4]: > 2000 nM
- IC50 [5]: > 2000 nM
- IC50 [6]: > 2000 nM
- IC50 [7]: > 2000 nM
- IC50 [8]: 140 nM
- IC50 [9]: 1390 nM
- IC50 [10]: 82.9 nM
- IC50 [11]: 1150 nM
- IC50 [12]: 1850 nM
- IC50 [13]: 1330 nM
- IC50 [14]: > 2000 nM
- IC50 [15]: > 2000 nM
- IC50 [16]: > 2000 nM
- IC50 [17]: > 2000 nM
- IC50 [18]: 449 nM
- IC50 [19]: > 2000 nM
- IC50 [20]: 409 nM
- IC50 [21]: 392 nM
- IC50 [22]: > 2000 nM
- IC50 [23]: 516 nM
- IC50 [24]: > 2000 nM
- IC50 [25]: 481 nM
- IC50 [26]: 605 nM
- IC50 [27]: > 2000 nM
- IC50 [28]: > 2000 nM
- IC50 [29]: 427 nM
- IC50 [30]: 718 nM
- IC50 [31]: > 2000 nM
- IC50 [32]: 665 nM
- IC50 [33]: 137 nM
- IC50 [34]: 997 nM
- IC50 [35]: 327 nM
- IC50 [36]: 1490 nM
- IC50 [37]: 145 nM
- IC50 [38]: 1540 nM
- IC50 [39]: > 2000 nM
- IC50 [40]: > 2000 nM
- IC50 [41]: > 2000 nM
- IC50 [42]: 862 nM
- IC50 [43]: 297 nM
- IC50 [44]: 572 nM
- IC50 [45]: 147 nM
- IC50 [46]: 528 nM
- IC50 [47]: 334 nM
- IC50 [48]: 1170 nM
- IC50 [49]: 874 nM
- IC50 [50]: 321 nM
- IC50 [51]: 128 nM
- IC50 [52]: 1650 nM
- IC50 [53]: 1430 nM

SMILES: Cn1cc(/C=C2\C(=O)Nc3cccnc32)c2ccccc21
- IC50 [1]: > 2000 nM
- IC50 [2]: > 2000 nM
- IC50 [3]: > 2000 nM
- IC50 [4]: > 2000 nM
- IC50 [5]: > 2000 nM
- IC50 [6]: > 2000 nM
- IC50 [7]: > 2000 nM
- IC50 [8]: > 2000 nM
- IC50 [9]: > 2000 nM
- IC50 [10]: > 2000 nM
- IC50 [11]: > 2000 nM
- IC50 [12]: > 2000 nM
- IC50 [13]: > 2000 nM
- IC50 [14]: > 2000 nM
- IC50 [15]: > 2000 nM
- IC50 [16]: > 2000 nM
- IC50 [17]: > 2000 nM
- IC50 [18]: > 2000 nM
- IC50 [19]: > 2000 nM
- IC50 [20]: > 2000 nM
- IC50 [21]: > 2000 nM
- IC50 [22]: > 2000 nM
- IC50 [23]: > 2000 nM
- IC50 [24]: > 2000 nM
- IC50 [25]: > 2000 nM
- IC50 [26]: > 2000 nM
- IC50 [27]: > 2000 nM
- IC50 [28]: > 2000 nM
- IC50 [29]: > 2000 nM
- IC50 [30]: > 2000 nM
- IC50 [31]: > 2000 nM
- IC50 [32]: > 2000 nM
- IC50 [33]: > 2000 nM
- IC50 [34]: > 2000 nM
- IC50 [35]: > 2000 nM
- IC50 [36]: > 2000 nM
- IC50 [37]: > 2000 nM
- IC50 [38]: > 2000 nM
- IC50 [39]: > 2000 nM
- IC50 [40]: > 2000 nM
- IC50 [41]: > 2000 nM
- IC50 [42]: > 2000 nM
- IC50 [43]: > 2000 nM
- IC50 [44]: > 2000 nM
- IC50 [45]: > 2000 nM
- IC50 [46]: > 2000 nM
- IC50 [47]: > 2000 nM
- IC50 [48]: > 2000 nM
- IC50 [49]: > 2000 nM
- IC50 [50]: > 2000 nM
- IC50 [51]: > 2000 nM
- IC50 [52]: > 2000 nM
- IC50 [53]: > 2000 nM

SMILES: Cn1c(=O)n(-c2ccc(C(C)(C)C#N)cc2)c2c3cc(-c4cnc5ccccc5c4)ccc3ncc21 [DACTOLISIB]
- IC50 [1]: 341 nM
- IC50 [2]: 22.2 nM
- IC50 [3]: 46.6 nM
- IC50 [4]: 31.6 nM
- IC50 [5]: 1960 nM
- IC50 [6]: 59.9 nM
- IC50 [7]: 63.9 nM
- IC50 [8]: 11.8 nM
- IC50 [9]: 53.5 nM
- IC50 [10]: 29.5 nM
- IC50 [11]: < 7.81 nM
- IC50 [12]: 64.5 nM
- IC50 [13]: 127 nM
- IC50 [14]: 739 nM
- IC50 [15]: 152 nM
- IC50 [16]: 81.5 nM
- IC50 [17]: 344 nM
- IC50 [18]: 50.6 nM
- IC50 [19]: 80.5 nM
- IC50 [20]: 113 nM
- IC50 [21]: 131 nM
- IC50 [22]: > 2000 nM
- IC50 [23]: 63.6 nM
- IC50 [24]: 136 nM
- IC50 [25]: 37.9 nM
- IC50 [26]: 67.3 nM
- IC50 [27]: 173 nM
- IC50 [28]: 185 nM
- IC50 [29]: 82.9 nM
- IC50 [30]: 12 nM
- IC50 [31]: 420 nM
- IC50 [32]: 49.2 nM
- IC50 [33]: 131 nM
- IC50 [34]: 24.6 nM
- IC50 [35]: 112 nM
- IC50 [36]: 46.1 nM
- IC50 [37]: 137 nM
- IC50 [38]: 44.6 nM
- IC50 [39]: > 2000 nM
- IC50 [40]: 60.9 nM
- IC50 [41]: 517 nM
- IC50 [42]: 46.2 nM
- IC50 [43]: 56 nM
- IC50 [44]: 16.4 nM
- IC50 [45]: 68.2 nM
- IC50 [46]: 135 nM
- IC50 [47]: 36.4 nM
- IC50 [48]: 81.2 nM
- IC50 [49]: 28.3 nM
- IC50 [50]: 51.9 nM
- IC50 [51]: 18.7 nM
- IC50 [52]: 47.8 nM
- IC50 [53]: 1500 nM
